Source: paper PMC4440778, “Structure-Activity Relationship and Mode of Action of a Frog Secreted Antibacterial Peptide B1CTcu5 Using Synthetically and Modularly Modified or Deleted (SMMD) Peptides” (PLoS ONE, 2015)
Converted amounts (≈) assume the structure as drawn. Where a SMILES comes first, the peptide text is derived from it. Bridges are numbered along the chain shown (N, C = ends). Where no end group is shown, it is not given here. [ ]: non-standard residue; d: D form. The star is where a group is joined. Acm = CC(=O)NC*

Key:
[1] = tested on: V. cholerae (clinical isolates); conditions: 24 h
Description: (§2) Bacterial cultures were grown in Luria Bertani broth (Hi-media) by overnight incubation at 37°C with constant shaking. Microbial cultures having 10^6 CFU/ml were made from OD 0.6 culture. Respective peptide stock concentration (1mg/ml) were prepared in sterile water and diluted in LB broth to make concentrations ranging from 1–200 μg/ml. Bacterial culture (50 μl) was treated with 50 μl of individual peptide amide solution of various concentrations and incubated for 24 h at 37°C with constant shaking in a 96 well microtitre plate. […] The minimum inhibitory concentration (MIC) was taken as the dose at which 100% of growth inhibition was observed and was calculated from the graph. MIC was calculated from independent experiments performed in triplicate.

S. aureus ATCC 9542 = conditions: ATCC 9542, 24 h
Description: as §2

B. coagulans ATCC 7050 = conditions: ATCC 7050, 24 h
Description: as §2

E. coli MG 1655 = conditions: MG 1655, 24 h
Description: as §2

P. aeruginosa ATCC 27853 = conditions: ATCC 27853, 24 h
Description: as §2

B. subtilis MTCC 14416 = conditions: MTCC 14416, 24 h
Description: as §2

skin cancer cells (A431) = type: cell-based, human
Description: (§1) Cytotoxicity of the peptides against human embryonic kidney (HEK) cells, skin cancer cells (A431) and PBMCs were evaluated by 3-[4, 5-dimethylthiazol-2-yl]-2, 5-diphenyl tetrazolium bromide (MTT) assay. Peptide solution prepared in less than 0.2% DMSO (10–100 μg/ml) was treated with initially seeded 10,000 cells per well for HEK and A431 cells. To assess peptide cytotoxicity in PBMCs, MTT assay was performed by adding different concentrations of the respective peptides to 96 well plate containing 40,000 PBMCs per well, in triplicate. The conversion of MTT into […] was determined by measuring the absorbance at 570 nm.

[2] = tested on: human embryonic kidney (HEK) cells; type: cell-based
Description: as §1

PBMCs = type: cell-based, human
Description: Peripheral blood mononuclear cells (PBMCs) were isolated from heparanised blood of healthy individuals. Five milliliter of blood was diluted with PBS (pH 7.4), and layered above 5 ml of histopaque and centrifuged at 1200 rpm for 30 min at room temperature. The upper layer was discarded, and the interphase containing PBMCs were carefully withdrawn and washed with PBS. It was centrifuged at 1500 rpm at room temperature for 10 min, the pellets were resuspended in RPMI medium and the cells were counted.
as §1

## CC[C@H](C)[C@H](N)C(=O)N[C@@H](C)C(=O)NCC(=O)N[C@@H](CC(C)C)C(=O)N[C@@H](C)C(=O)N[C@@H](C)C(=O)N[C@@H](CC(N)=O)C(=O)N[C@@H](Cc1ccccc1)C(=O)N[C@@H](CC(C)C)C(=O)N1CCC[C@H]1C(=O)N[C@@H](CCC(N)=O)C(=O)N[C@H](C(=O)N[C@@H](CC(C)C)C(=O)N[C@H]1CSSC[C@@H](C(N)=O)NC(=O)[C@H](CCCCN)NC(=O)[C@H](CCCNC(=N)N)NC(=O)[C@H](C)NC(=O)[C@H]([C@@H](C)CC)NC(=O)[C@H](CCCCN)NC1=O)[C@@H](C)CC [B1CTcu5-L] (H-IAGLAANFLPQILCKIARKC-NH2; disulfide 14-20)
[1]
  MIC: 25 µg/mL (≈ 11.7 µM)
S. aureus ATCC 9542
  MIC: 25 µg/mL (≈ 11.7 µM)
B. coagulans ATCC 7050
  MIC: 100 µg/mL (≈ 46.7 µM)
E. coli MG 1655
  MIC: 50 µg/mL (≈ 23.4 µM)
P. aeruginosa ATCC 27853
  MIC: >100 µg/mL
B. subtilis MTCC 14416
  MIC: 100 µg/mL (≈ 46.7 µM)

## CC[C@H](C)[C@H](NC(=O)[C@H](CCCCN)NC(=O)[C@H](CSCNC(C)=O)NC(=O)[C@H](CC(C)C)NC(=O)[C@@H](NC(=O)[C@H](CCC(N)=O)NC(=O)[C@@H]1CCCN1C(=O)[C@H](CC(C)C)NC(=O)[C@H](Cc1ccccc1)NC(=O)[C@H](CC(N)=O)NC(=O)[C@H](C)NC(=O)[C@H](C)NC(=O)[C@H](CC(C)C)NC(=O)CNC(=O)[C@H](C)NC(=O)[C@@H](NC(=O)[C@@H](N)CC(C)C)[C@@H](C)CC)[C@@H](C)CC)C(=O)N[C@@H](C)C(=O)N[C@@H](CCCNC(=N)N)C(=O)N[C@@H](CCCCN)C(=O)N[C@@H](CS)C(N)=O [B1CTcu5C (Acm)] (H-LIAGLAANFLPQILC(Acm)KIARKC-NH2)
[1]
  MIC: 50 µg/mL (≈ 21.5 µM)
S. aureus ATCC 9542
  MIC: 50 µg/mL (≈ 21.5 µM)
B. coagulans ATCC 7050
  MIC: 25 µg/mL (≈ 10.7 µM)
E. coli MG 1655
  MIC: 12.5 µg/mL (≈ 5.37 µM)
P. aeruginosa ATCC 27853
  MIC: >100 µg/mL
B. subtilis MTCC 14416
  MIC: 50 µg/mL (≈ 21.5 µM)

## CC[C@H](C)[C@@H]1NC(=O)[C@H](CCCCN)NC(=O)[C@@H](NC(=O)[C@H](CC(C)C)NC(=O)[C@@H](NC(=O)[C@H](CCC(N)=O)NC(=O)[C@@H]2CCCN2C(=O)[C@H](CC(C)C)NC(=O)[C@H](Cc2ccccc2)NC(=O)[C@H](CC(N)=O)NC(=O)[C@H](C)NC(=O)[C@H](C)NC(=O)[C@H](CC(C)C)NC(=O)CNC(=O)[C@H](C)NC(=O)[C@@H](NC(=O)[C@@H](N)CC(C)C)[C@@H](C)CC)[C@@H](C)CC)CSSC[C@@H](C(N)=O)NC(=O)[C@H](CCCCN)NC(=O)[C@H](CCCNC(=N)N)NC(=O)[C@H](C)NC1=O [Cyclic B1CTcu5] (H-LIAGLAANFLPQILCKIARKC-NH2; disulfide 15-21)
[1]
  MIC: 25 µg/mL (≈ 11.1 µM)
S. aureus ATCC 9542
  MIC: >100 µg/mL
B. coagulans ATCC 7050
  MIC: 15 µg/mL (≈ 6.66 µM)
Skin cancer cells (A431)
  CC 50: >100 µg/mL
[2]
  CC 50: >100 µg/mL
E. coli MG 1655
  MIC: 25 µg/mL (≈ 11.1 µM)
P. aeruginosa ATCC 27853
  MIC: >100 µg/mL
PBMCs
  CC 50: 75.1 ± 1.46 µg/mL (≈ 33.3 µM)
B. subtilis MTCC 14416
  MIC: 50 µg/mL (≈ 22.2 µM)

## CC[C@H](C)[C@@H]1NC(=O)[C@H](CCCCN)NC(=O)[C@@H](NC(=O)[C@H](CC(C)C)NC(=O)[C@@H](NC(=O)[C@H](CCC(N)=O)NC(=O)[C@@H]2CCCN2C(=O)[C@H](CC(C)C)NC(=O)[C@H](Cc2ccccc2)NC(=O)[C@H](CC(N)=O)NC(=O)[C@H](C)NC(=O)[C@H](C)NC(=O)[C@H](CC(C)C)NC(=O)CNC(=O)[C@H](C)NC(=O)[C@@H](NC(=O)[C@@H](N)Cc2c[nH]c3ccccc23)[C@@H](C)CC)[C@@H](C)CC)CSSC[C@@H](C(N)=O)NC(=O)[C@H](CCCCN)NC(=O)[C@H](CCCNC(=N)N)NC(=O)[C@H](C)NC1=O [B1CTcu5W] (H-WIAGLAANFLPQILCKIARKC-NH2; disulfide 15-21)
[1]
  MIC: 25 µg/mL (≈ 10.7 µM)
S. aureus ATCC 9542
  MIC: 12.5 µg/mL (≈ 5.37 µM)
B. coagulans ATCC 7050
  MIC: 12.5 µg/mL (≈ 5.37 µM)
Skin cancer cells (A431)
  CC 50: >100 µg/mL
[2]
  CC 50: >100 µg/mL
E. coli MG 1655
  MIC: 100 µg/mL (≈ 43 µM)
P. aeruginosa ATCC 27853
  MIC: >100 µg/mL
PBMCs
  CC 50: 74.5 ± 2.44 µg/mL (≈ 32 µM)
B. subtilis MTCC 14416
  MIC: 50 µg/mL (≈ 21.5 µM)

## CC[C@H](C)[C@@H]1NC(=O)[C@H](CCCCN)NC(=O)[C@@H](NC(=O)[C@H](CC(C)C)NC(=O)[C@@H](NC(=O)[C@H](CCC(N)=O)NC(=O)[C@@H]2CCCN2C(=O)[C@H](CC(C)C)NC(=O)[C@H](Cc2ccccc2)NC(=O)[C@H](CC(N)=O)NC(=O)[C@H](C)NC(=O)[C@H](C)NC(=O)[C@H](CC(C)C)NC(=O)CN)[C@@H](C)CC)CSSC[C@@H](C(N)=O)NC(=O)[C@H](CCCCN)NC(=O)[C@H](CCCNC(=N)N)NC(=O)[C@H](C)NC1=O [B1CTcu5-LIA] (H-GLAANFLPQILCKIARKC-NH2; disulfide 12-18)
[1]
  MIC: 50 µg/mL (≈ 25.6 µM)
S. aureus ATCC 9542
  MIC: 50 µg/mL (≈ 25.6 µM)
B. coagulans ATCC 7050
  MIC: 100 µg/mL (≈ 51.1 µM)
E. coli MG 1655
  MIC: 100 µg/mL (≈ 51.1 µM)
P. aeruginosa ATCC 27853
  MIC: >100 µg/mL
B. subtilis MTCC 14416
  MIC: 100 µg/mL (≈ 51.1 µM)

## CC[C@H](C)[C@@H]1NC(=O)[C@H](CCCCN)NC(=O)[C@@H](NC(=O)[C@H](CC(C)C)NC(=O)[C@@H](NC(=O)[C@H](CCC(N)=O)NC(=O)[C@@H]2CCCN2C(=O)[C@H](CC(C)C)NC(=O)[C@H](Cc2ccccc2)NC(=O)[C@H](CC(N)=O)NC(=O)[C@H](C)NC(=O)[C@H](C)NC(=O)[C@H](CC(C)C)NC(=O)CNC(=O)[C@H](C)N)[C@@H](C)CC)CSSC[C@@H](C(N)=O)NC(=O)[C@H](CCCCN)NC(=O)[C@H](CCCNC(=N)N)NC(=O)[C@H](C)NC1=O [B1CTcu5-LI] (H-AGLAANFLPQILCKIARKC-NH2; disulfide 13-19)
[1]
  MIC: 25 µg/mL (≈ 12.3 µM)
S. aureus ATCC 9542
  MIC: 50 µg/mL (≈ 24.7 µM)
B. coagulans ATCC 7050
  MIC: 80 µg/mL (≈ 39.5 µM)
E. coli MG 1655
  MIC: 50 µg/mL (≈ 24.7 µM)
P. aeruginosa ATCC 27853
  MIC: >100 µg/mL

## CC[C@H](C)[C@H](NC(=O)[C@H](CCCCN)NC(=O)[C@H](CS)NC(=O)[C@H](CC(C)C)NC(=O)[C@@H](NC(=O)[C@H](CCC(N)=O)NC(=O)[C@@H]1CCCN1C(=O)[C@H](CC(C)C)NC(=O)[C@H](Cc1ccccc1)NC(=O)[C@H](CC(N)=O)NC(=O)[C@H](C)NC(=O)[C@H](C)NC(=O)[C@H](CC(C)C)NC(=O)CNC(=O)[C@H](C)NC(=O)[C@@H](NC(=O)[C@@H](N)CC(C)C)[C@@H](C)CC)[C@@H](C)CC)C(=O)N[C@@H](C)C(=O)N[C@@H](CCCNC(=N)N)C(=O)N[C@@H](CCCCN)C(=O)N[C@@H](CS)C(N)=O [Linear B1CTcu5] (H-LIAGLAANFLPQILCKIARKC-NH2)
[1]
  MIC: 25 µg/mL (≈ 11.1 µM)
S. aureus ATCC 9542
  MIC: >100 µg/mL
B. coagulans ATCC 7050
  MIC: 12.5 µg/mL (≈ 5.54 µM)
E. coli MG 1655
  MIC: 25 µg/mL (≈ 11.1 µM)
P. aeruginosa ATCC 27853
  MIC: >100 µg/mL
B. subtilis MTCC 14416
  MIC: 50 µg/mL (≈ 22.2 µM)

## CC[C@@H](C)[C@@H](NC(=O)[C@H](N)CC(C)C)C(=O)N[C@H](C)C(=O)NCC(=O)N[C@H](CC(C)C)C(=O)N[C@H](C)C(=O)N[C@H](C)C(=O)N[C@H](CC(N)=O)C(=O)N[C@H](Cc1ccccc1)C(=O)N[C@H](CC(C)C)C(=O)N1CCC[C@@H]1C(=O)N[C@H](CCC(N)=O)C(=O)N[C@@H](C(=O)N[C@H](CC(C)C)C(=O)N[C@@H]1CSSC[C@H](C(N)=O)NC(=O)[C@@H](CCCCN)NC(=O)[C@@H](CCCNC(=N)N)NC(=O)[C@@H](C)NC(=O)[C@@H]([C@H](C)CC)NC(=O)[C@@H](CCCCN)NC1=O)[C@H](C)CC [DB1CTcu5] (H-[dL][dI][dA]G[dL][dA][dA][dN][dF][dL][dP][dQ][dI][dL][dC][dK][dI][dA][dR][dK][dC]-NH2; disulfide 15-21)
S. aureus ATCC 9542
  MIC: 50 µg/mL (≈ 22.2 µM)
B. coagulans ATCC 7050
  MIC: 15 µg/mL (≈ 6.66 µM)
Skin cancer cells (A431)
  CC 50: >100 µg/mL
[2]
  CC 50: >100 µg/mL
E. coli MG 1655
  MIC: 25 µg/mL (≈ 11.1 µM)
P. aeruginosa ATCC 27853
  MIC: >100 µg/mL
PBMCs
  CC 50: 71.4 ± 2.3 µg/mL (≈ 31.7 µM)
B. subtilis MTCC 14416
  MIC: 50 µg/mL (≈ 22.2 µM)

## LIAGLAANFLPQILCKIARK-NH2 [B1CTcu5-C]
[1]
  MIC: 50 µg/mL
S. aureus ATCC 9542
  MIC: 50 µg/mL
B. coagulans ATCC 7050
  MIC: 25 µg/mL
E. coli MG 1655
  MIC: 25 µg/mL
P. aeruginosa ATCC 27853
  MIC: >100 µg/mL
B. subtilis MTCC 14416
  MIC: 50 µg/mL
